Where two headings read alike, the source gives them in different places.
Key:
MMP-2 = molecular target: T1, MMP-2 (Homo sapiens, UniProt P08253); assay: Assay for inhibitory activities on MMPs (fluorogenic peptide substrate), MMP-2; assay type: biochemical
T1 construct: purchased Calbiochem-Novabiochem International, Inc
T1 sequence (P08253 110-660): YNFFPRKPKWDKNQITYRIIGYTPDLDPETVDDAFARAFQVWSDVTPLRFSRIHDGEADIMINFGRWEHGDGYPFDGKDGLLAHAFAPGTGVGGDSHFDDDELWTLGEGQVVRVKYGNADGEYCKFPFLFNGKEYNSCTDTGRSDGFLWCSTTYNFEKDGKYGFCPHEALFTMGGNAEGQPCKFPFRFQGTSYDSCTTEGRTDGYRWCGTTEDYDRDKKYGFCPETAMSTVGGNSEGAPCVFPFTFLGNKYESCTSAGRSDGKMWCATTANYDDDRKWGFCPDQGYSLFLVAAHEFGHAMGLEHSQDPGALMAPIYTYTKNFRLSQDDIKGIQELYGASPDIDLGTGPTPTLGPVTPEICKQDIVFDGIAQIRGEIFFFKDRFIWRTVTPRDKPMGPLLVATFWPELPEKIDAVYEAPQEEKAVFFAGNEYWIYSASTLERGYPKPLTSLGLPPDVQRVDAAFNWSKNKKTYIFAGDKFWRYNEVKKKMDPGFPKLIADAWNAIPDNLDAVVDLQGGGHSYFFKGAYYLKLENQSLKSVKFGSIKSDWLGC
Protocol: MMP-2 was purchased from Calbiochem-Novabiochem International, Inc.
(§1) The enzymatic activity on MMPs was analyzed by the method described in “C. […] The substrate (MOCAc-Pro-Leu-Gly-Leu-A2Pr(DNP)-Ala-Arg-NH2) was purchased from Peptide Institute, Inc., Osaka, Japan.
(§2) The measurement of the inhibitory activities (IC50) was carried out by the following four methods;
(§3) A) Reaction with substrate, enzyme (MMPs) and inhibitor
(§4) B) Reaction with substrate and inhibitor, without enzyme
(§5) C) Reaction with substrate and enzyme (MMPs), without inhibitor
(§6) D) Reaction with substrate only
(§7) IC50 values were calculated by using the following formula and each fluorescence values of above four methods (A to D).
(§8) % inhibition={1−(A−B)/(C−D)}×100

MMP-9 = molecular target: T2, MMP-9 (Homo sapiens, UniProt P14780); assay: Assay for inhibitory activities on MMPs (fluorogenic peptide substrate), MMP-9; assay type: biochemical
T2 construct: purchased Calbiochem-Novabiochem International, Inc
Protocol: MMP-9 was purchased from Calbiochem-Novabiochem International, Inc.
as §1, §2, §3, §4, §5, §6, §7, §8

MMP-8 Catalytic domain = molecular target: T3, MMP-8 Catalytic domain (Homo sapiens, UniProt P22894); assay: Assay for inhibitory activities on MMPs (fluorogenic peptide substrate), MMP-8; assay type: biochemical
T3 construct: MMP-8 Catalytic domain (^99Phe˜^262Gly); His-tag; Enterokinase digestion site; made in house; host or cells: E. coli
Protocol: The DNA fragment was cloned into an E. coli expression vector, pTrc99A containing the His-tag sequence and Enterokinase digestion site. The MMP-8 Catalytic domain expression was induced by the addition of IPTG (Isopropyl-β-D-thiogalactopyranoside), and the cell pellet containing MMP-8 Catalytic domain was obtained. […] Isolation of MMP-8 from the cell pellet was used by general techniques. After the cell pellet was dissolved in 6M urea, the solution was loaded onto a metal-chelating matrix. Subsequently, dialysis was used to remove urea and refold of MMP=8. And then active MMP-8 was obtained.
as §1, §2, §3, §4, §5, §6, §7, §8

[1] = test system: Lewis mouse lung carcinoma cells; assay: Antitumor efficacy using artificial lung metastasis of Lewis mouse lung carcinoma; assay type: in vivo, BDF1 mice; details: for inhibition in vivo at 20 mg/kg / inhibition in vivo at 200 mg/kg / inhibition in vivo at 2 mg/kg: Mus musculus, po, 336 h, read-out: Inhibition (%)
Protocol: Lewis mouse lung carcinoma cells (4×10^5 cells) were inoculated into the tail vein of BDF1 mice. […] The doses of the compounds were 20 and 200 mg/kg or 2 and 20 mg/kg. At 14 day after tumor inoculation, tumor nodules formed in the lung of the treated mice were counted and the antitumor efficacy was evaluated.

[2] = experiment 3-2, 20 mg/kg oral, five times, lung tumor nodules at day 14
[3] = experiment 3-2, 200 mg/kg oral, five times, lung tumor nodules at day 14
[4] = experiment 3-1, 20 mg/kg oral, five times, lung tumor nodules at day 14
[5] = experiment 3-1, 200 mg/kg oral, five times, lung tumor nodules at day 14
[6] = experiment 3-3, 2 mg/kg oral, five times, lung tumor nodules at day 14
[7] = experiment 3-3, 20 mg/kg oral, five times, lung tumor nodules at day 14

T2 sequence (P14780 94-707): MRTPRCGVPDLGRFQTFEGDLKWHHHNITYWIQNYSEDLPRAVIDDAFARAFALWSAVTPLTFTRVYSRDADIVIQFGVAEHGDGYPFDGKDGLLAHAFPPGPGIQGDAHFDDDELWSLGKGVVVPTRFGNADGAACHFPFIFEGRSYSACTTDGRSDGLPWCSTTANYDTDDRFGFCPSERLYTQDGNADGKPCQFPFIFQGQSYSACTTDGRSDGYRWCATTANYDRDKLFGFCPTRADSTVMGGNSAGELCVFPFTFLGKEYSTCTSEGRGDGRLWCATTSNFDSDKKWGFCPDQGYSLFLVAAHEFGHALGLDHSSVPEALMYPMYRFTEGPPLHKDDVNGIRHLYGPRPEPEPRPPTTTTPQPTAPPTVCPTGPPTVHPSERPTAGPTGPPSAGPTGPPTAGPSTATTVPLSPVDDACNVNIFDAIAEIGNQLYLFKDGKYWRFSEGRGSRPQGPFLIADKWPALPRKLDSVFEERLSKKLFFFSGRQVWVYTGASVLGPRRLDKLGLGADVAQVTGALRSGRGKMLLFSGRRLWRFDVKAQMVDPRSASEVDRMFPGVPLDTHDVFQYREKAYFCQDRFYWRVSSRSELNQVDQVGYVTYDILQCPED
T3 sequence (P22894 99-262): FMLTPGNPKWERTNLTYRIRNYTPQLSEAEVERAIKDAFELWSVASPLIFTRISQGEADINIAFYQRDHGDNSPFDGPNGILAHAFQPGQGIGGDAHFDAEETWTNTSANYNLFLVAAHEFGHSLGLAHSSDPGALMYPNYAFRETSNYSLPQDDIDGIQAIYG

| SMILES | IC50 (MMP-2) [nM] | IC50 (MMP-9) [nM] | IC50 (MMP-8 Catalytic domain) [nM] | melting point [°C] | inhibition in vivo at 20 mg/kg [1, 2] [%] | inhibition in vivo at 200 mg/kg [1, 3] [%] | Number of colonies (Mean ± SD) [1, 2] | Number of colonies (Mean ± SD) [1, 3] | inhibition in vivo at 20 mg/kg [1, 4] [%] | inhibition in vivo at 200 mg/kg [1, 5] [%] | Number of colonies (Mean ± SD) [1, 4] | Number of colonies (Mean ± SD) [1, 5] | inhibition in vivo at 20 mg/kg [1] [%] | inhibition in vivo at 200 mg/kg [1] [%] | inhibition in vivo at 2 mg/kg [1, 6] [%] | inhibition in vivo at 20 mg/kg [1, 7] [%] | Number of colonies (Mean ± SD) [1, 6] | Number of colonies (Mean ± SD) [1, 7] | inhibition in vivo at 2 mg/kg [1] [%] |
| --- | --- | --- | --- | --- | --- | --- | --- | --- | --- | --- | --- | --- | --- | --- | --- | --- | --- | --- | --- |
| Cc1ccc(-c2noc(-c3ccc(S(=O)(=O)N[C@@H](Cc4ccccc4)C(=O)O)cc3)n2)cc1 [Compound A-8] | 51 | 479 | > 1000 | – | – | – | – | – | – | – | 18.8 ± 11.4 | 15.7 ± 5.5 | 56 | 63 | – | – | – | – | – |
| O=C(O)[C@@H](Cc1c[nH]c2ccccc12)NSOOc1ccc(-c2nnn(-c3ccccc3)n2)cc1 [Compound B-1, reference compound] | – | – | – | – | 37 | 31 | 34.8 ± 14.5 | 38.3 ± 20.7 | 38 | 46 | 26.5 ± 19.5 | 23.0 ± 7.6 | – | – | 14 | 39 | 53.5 ± 18.5 | 37.5 ± 13.0 | – |
| C[C@@H](NS(=O)(=O)c1ccc(-c2nc(-c3ccc(Cl)cc3)no2)cc1)C(=O)O [Compound A-4] | 26 | 190 | > 1000 | – | – | – | – | – | – | – | 19.2 ± 9.4 | 23.3 ± 12.8 | 55 | 46 | – | – | – | – | – |
| Cc1ccc(-c2noc(-c3ccc(S(=O)(=O)N[C@@H](C(=O)O)C(C)C)cc3)n2)s1 [Compound A-93] | 6 | 47 | 88 | – | – | – | – | – | – | – | – | – | 50 | – | – | – | 36.3 ± 9.2 | 30.8 ± 10.8 | 41 |
| Cc1ccc(-c2noc(-c3ccc(S(=O)(=O)N[C@H](C)C(=O)O)cc3)n2)cc1 [Compound A-1] | 30 | 470 | > 1000 | 200 to 203 | – | – | – | – | 53 | 69 | 20.2 ± 13.3 | 13.3 ± 11.8 | – | – | – | – | – | – | – |
| O=C(O)[C@@H](Cc1ccccc1)NS(=O)(=O)c1ccc(-c2nc(-c3ccccc3)no2)cc1 [Compound A-2] | 53 | > 1000 | > 1000 | 221 to 222 | – | – | – | – | – | – | – | – | – | – | – | – | – | – | – |

Now from value to molecule, other results behind:

| IC50 (MMP-2) [nM] | IC50 (MMP-9) [nM] | IC50 (MMP-8 Catalytic domain) [nM] | melting point [°C] | SMILES | inhibition in vivo at 20 mg/kg [1, 2] [%] | inhibition in vivo at 200 mg/kg [1, 3] [%] | Number of colonies (Mean ± SD) [1, 2] | Number of colonies (Mean ± SD) [1, 3] | inhibition in vivo at 20 mg/kg [1, 4] [%] | inhibition in vivo at 200 mg/kg [1, 5] [%] | Number of colonies (Mean ± SD) [1, 4] | Number of colonies (Mean ± SD) [1, 5] | inhibition in vivo at 20 mg/kg [1] [%] | inhibition in vivo at 200 mg/kg [1] [%] | inhibition in vivo at 2 mg/kg [1, 6] [%] | inhibition in vivo at 20 mg/kg [1, 7] [%] | Number of colonies (Mean ± SD) [1, 6] | Number of colonies (Mean ± SD) [1, 7] | inhibition in vivo at 2 mg/kg [1] [%] |
| --- | --- | --- | --- | --- | --- | --- | --- | --- | --- | --- | --- | --- | --- | --- | --- | --- | --- | --- | --- |
| 50 | > 1000 | > 1000 | – | C[C@@H](NS(=O)(=O)c1ccc(-c2nc(-c3ccc(F)cc3)no2)cc1)C(=O)O [Compound A-6] | 26 | 57 | 40.8 ± 13.5 | 24.0 ± 9.7 | – | – | – | – | – | – | – | – | – | – | – |
| 30 | > 1000 | 610 | – | CC(C)[C@@H](NS(=O)(=O)c1ccc(-c2nc(-c3cccs3)no2)cc1)C(=O)O [Compound A-5] | 24 | 37 | 41.8 ± 22.5 | 34.8 ± 12.1 | – | – | – | – | – | – | – | – | – | – | – |
| 15 | 384 | 775 | – | Cc1ccc(-c2noc(-c3ccc(S(=O)(=O)N[C@H](Cc4ccccc4)C(=O)O)cc3)n2)cc1 [Compound A-3] | – | – | – | – | – | – | – | – | – | – | – | – | – | – | – |
| 8 | 78 | > 1000 | – | CCc1ccc(-c2noc(-c3ccc(S(=O)(=O)N[C@H](Cc4ccccc4)C(=O)O)cc3)n2)cc1 [Compound A-7] | – | – | – | – | 56 | 49 | 18.8 ± 6.9 | 21.7 ± 9.6 | – | – | – | – | – | – | – |
| 65 | > 1000 | > 1000 | – | C[C@@H](NS(=O)(=O)c1ccc(-c2nc(-c3ccccc3)no2)cc1)C(=O)O [Compound A-10] | – | – | – | – | 43 | 41 | 24.5 ± 7.8 | 25.2 ± 17.0 | – | – | – | – | – | – | – |
| 18 | 566 | > 1000 | – | O=C(O)[C@@H](Cc1c[nH]c2ccccc12)NS(=O)(=O)c1ccc(-c2nc(-c3ccccc3)no2)cc1 [Compound A-9] | 30 | 51 | 38.7 ± 5.8 | 27.0 ± 9.7 | – | – | – | – | – | – | – | – | – | – | – |

Source: patent publication US6720343B2, “Oxadiazole derivatives having anticancer effects” (Shionogi & Co., Ltd., priority 2002, dated 2004)
